Assay results as given in US20110059916A1, “Methods and Compositions for Inducing Torpor in a Subject” (priority 2006, published 2011).

Tests used:
[1] = Daily injection of 5′-AMP into morbid obese Ob/Ob mice: body weight and food intake; assay type: in vivo; settings: Ob/Ob mouse, daily injection 5 then 2.5 umol/gbw, compared with saline
Description: This was then decrease to 2.5 umol/gbw for the rest of the studies.

mClps = mClps (procolipase) expression after injection into light-dark mice, Northern blot / RT-PCR; assay type: in vivo, mouse; settings: for mClps expression in the liver: injected into light-dark mice, Northern blot
Description: Northern blot and RT-PCR analysis: Tissues were collected and frozen in liquid nitrogen and stored at about -80 C. The total RNA was isolated from mouse livers following standard procedures.^31 Twenty micrograms of total RNA was separated by electrophoresis and transferred onto a nylon membrane. The blots were hybridized with ^32P-labeled cDNA probes, washed and exposed to X-ray film as previously described.^30 Colipase probe was the complete cDNA (e.g., Genbank No: BC042935); the Gapdh probe was the Pst I fragment of rat Gapdh cDNA.^32 The primer pair used to measure colipase expression was SEQ ID NO:1 [NT] and SEQ ID NO:2 [NT], The primer pair used to measure Gapdh expression as an internal control was SEQ ID NO:3 [NT] and SEQ ID NO:4 [NT] 720 by probe for mouse pancreatic lipase related protein 2 (mPlrp2) was generated by RT-PCR using oligos LipaseF SEQ ID NO:5 [NT] and […] NO:6 [NT] from liver mRNA.

[2] = Heart rate at high concentrations; assay type: in vivo
[3] = assay type: in vivo, mouse
Experimental: (§1) They were immediately put into individual 500 ml pre-cooled beakers placed in a chamber at 4° C. […] CBT of the mice was monitored by a digital thermometer (Fisher Scientific, USA, catalog 15-077-8) via a micro stainless steel probe (1 mm) placed 1 cm into the rectal opening of the mouse. Temperature readings were taken at 15-20 sec after insertion of the probe. Once the CBT dropped to 15±1.0° C., mice were then transferred to a regular mouse cage with bedding and kept in an environment chamber at a temperature set at 14±0.5° C. or 15±0.5° C. Mice in SA were visually monitored for arousal. Once arousal was apparent, the animals were returned to standard housing. After 12 h of SA, mice were returned to 20-22° C. AET housing with food and water given ad libitum. For 4 consecutive days after SA, food intakes were determined by weight differential of fresh chow and water after every 24 h at ZT2. Body weight was measured at every ZT2. Respiration rate was determined by placing a mouse inside an open-end 50 ml tube and the number of breaths were determined by counting the number of intakes and exhales over 10 sec intervals.
AET for about 60 min. Markedly different behavioral responses to 4° C. AET were observed. […] In contrast, mice injected with 5′-AMP maintained a relaxed posture and no apparent shivering. […] As CBT dropped below 31° C., the mice retained a considerable cognitive response to tactile stimuli indicating a state of torpor (T). However, when CBT dropped to 18-22° C., the mice lost much of their locomotor mobility but had the ability to reverse flip (RF) to right themselves when they were placed on their backs or sides. When CBT dropped below 17° C., this RF ability was lost and the animals entered a state of SA. When laid on their sides or backs, the mice appeared in a suspended animation state with out-stretched limbs and low respiration rates.
These observations raised questions concerning the relative contribution of 5′-AMP, AET and the CBT in mediating SA. To address these issues, the relationship between 5′-AMP and SA was investigated. […] AET for about 60 min.
AET to await spontaneous arousal.
To identify the driver of SA, the relationship between CBT of mice and the AET was investigated. Once in SA, mice were maintained either at 14±0.5° C. or 15±0.5° C. AET. […] Next, the arousal responses of mice kept at 14±0.5° C. or 15±0.5° C. AET were compared. The majority of mice maintained at 15±0.5° C. AET could spontaneously aroused from SA (FIG. 35b). […] When these mice were subsequently placed at a higher AET, they aroused spontaneously and could enter the S stage. A period of SA longer than 14 h was associated with a decline in the ability of the animal to enter the S stage after arousal by warming. […] The underlying cause(s) of death remains unclear.
Together, the foregoing studies indicate that CBT is a major driver of SA in direct response to a low AET. To obtain additional support for this conclusion, the effects of AET on the recovery rate from SA was investigated. Groups of mice (n=4) in SA with a CBT of about 15° C. were transferred into environments with increasing AET's. The time required for each animal's CBT to return to 37° C. was measured (FIG. 35c). A direct correlation between the increase in AET and the recovery rate from SA was seen. To determine whether there were any long-term negative effects from SA, food intake and body weight were measured for several days as an indirect assessment of health status. Mice (n=4) that exited SA spontaneously were used for these studies.

[4] = HPLC analysis of adenylates in blood, liver and muscle during SA; settings: mice in SA given a second injection, red blood cells, 2 hours later
Experimental: HPLC analysis for adenine nucleotides: Blood was rapidly removed from mice and frozen in liquid Nitrogen. Nucleotides were extracted from frozen samples using about 0.4 N perchloric acid as previously described.^35 Briefly, about 425 μl of ice-cold about 0.4 N perchloric acid was added to frozen blood samples and mixed. After about 10 μl was removed for protein determination, the remainder was centrifuged at about 14,000×g for about 10 minutes at about 4° C. The supernatant (e.g., 305 μl) was transferred to a clean tube, neutralized with about 178 μl of about 0.6 M KHCO3/about 0.72 M KOH and acidified with about 55 μl of about 0.18 M ammonium phosphate solution (pH 5.1) and one drop of dilute phosphoric acid. The samples were centrifuged and the supernatants were stored at about −80° C. for analysis. Blood extracts and adenine nucleotides ATP, ADP, AMP, c-AMP and adenosine (e.g., from Sigma, MO, USA) were separated and quantified using reversed-phase HPLC (e.g., Waters, Millipore Corp., Bedford, Mass.) analysis on a Partisphere bonded phase reverse phase C18 cartridge column at a flow rate of 1.5 ml/minutes.^36 The mobile phase was 0.02 M NH4H2PO4, pH 5.1, with a superimposed methanol gradient: about 0% for about 0-4 minutes, about 0-8% for about 4-6 minutes, about 8-20% for about 6-8 minutes, and about 20% for about 8-18 minutes.

[5] = Blood glucose after 5′-AMP injection; assay type: in vivo, mouse; settings: injections
[6] = Serum glucose and liver procolipase expression during SA and arousal; assay type: in vivo, mouse
Experimental: as §1, with “Experimental Procedures. Each mouse was injected intraperitoneally (IP) with the appropriate dosages of 5'-AMP (Sigma catalog# […]) dissolved in phosphate buffered saline. They were” for “They were”, “15±0.5° C. […] CBT. Mice in” for “15±0.5° C. Mice in”, “given ad labitum. For 4” for “given ad libitum. For 4”, “fresh chow every 24” for “fresh chow and water after every 24”, “sec intervals. These studies were carried out under institutionally approved animal protocol HSC-AWC 04-022. Analysis of serum glucose sample from mice at 2-3 h into SA was about 60% higher than control animals with CBT of 37° C. However, the serum blood glucose level drops to 40% below control animals at spontaneous arousal. […] A decline in blood glucose level can be reversed by increasing gluconeogenesis and reduced glucose need of major organs through β-oxidation of fatty acids. […] Liver RNA obtained from mice in normal state, SA, arousal by rewarming and spontaneous arousal was analyzed for procolipase expression by Northern blot analysis. […]” for “sec intervals.”

AMPK = settings: rat muscle, via AMPK; cited from earlier work
[7] = cited from earlier work
[8] = IP, above 0.25 mg/gbw, chamber at 4° C.
[9] = mouse, 4° C. environment for the cooling phase

## Nc1ncnc2c1ncn2[C@@H]1O[C@H](COP(=O)(O)O)[C@@H](O)[C@H]1O [5′-AMP, 5′-adenosine monophosphate]
[1]
  body weight: weight loss
  satiety / food intake: lower satiety
mClps; RT-PCR
  mClps expression in peripheral tissues: detected in all peripheral tissues sampled except the brain
mClps
  mClps expression in the liver: induced mClps expression
[2]
  heart rate: slows the heart rate
[3]; 0.25 to 1.5 mg/gbw, maintained at 15±0.5° C. AET until spontaneous arousal
  length of SA as a function of 5′-AMP dose: considerable overlap in the arousal time
[3]; IP, 4° C. AET for about 60 min, CBT reduction to at least 15° C.
  effective dosage (ED50) that induced at least 50% of the mice to enter SA: 0.125 mg/gbw
[3]; [8]
  CBT reached: 15±1.0 °C
  thermo-regulatory responses: blocked all thermo-regulatory responses
[3]; IP, above 0.25 mg/gbw, chamber at 4° C., CBT to 15±1.0° C.
  time for CBT drop: 60 ± 10 min
[3]; mice in SA
  CBT above ambient environmental temperature (AET) during SA: 1-2 °C
[3]; mouse
  dose that can induce deep torpor: 5-7.5 mg/g body weight
[3]; [9]
  ED50 for inducing torpor: approximately 0.15 mg/gram body weight
  ED100 for inducing torpor: approximately 0.25 mg/g body weight
[3]; mouse, in vivo
  body weight after SA: no significant difference in body weight
  food intake after SA: moderately lower food intake
[3]; normal about 120 breaths per min, CBT below 17° C.
  respiration rate in SA: reduced by at least two-thirds
High dose, from about 37° C., during about the first hour, ambient room temperature 24° C.
  CBT after injection: about 27 °C
mouse, in vivo
  adverse effects on the torpid mice: No apparent adverse effects
Various dosages, wild type mice
  length of torpor: dependent on the dosage
[4]
  ATP level after a second injection: steep drop in ATP level
[5]
  blood glucose levels: reduce the blood glucose levels
[6]; 2-3 h into SA, control CBT 37° C.
  serum glucose higher than control animals: about 60%
[6]; at spontaneous arousal
  serum blood glucose below control animals: 40%
[6]; mice that had aroused spontaneously, Northern blot
  procolipase expression in liver: robust level of procolipase expression

## Nc1ncnc2c1ncn2[C@@H]1O[C@H](COP(=O)(O)OP(=O)(O)O)[C@@H](O)[C@H]1O [ADP, adenosine 5′-diphosphate]
mClps
  mClps expression in the liver: did not induce mClps expression

## NC(=O)c1ncn([C@@H]2O[C@H](CO)[C@@H](O)[C@H]2O)c1N [AICAR, 5-aminoimidazole-4-carboxamide ribonucleoside]
AMPK
  fatty acid oxidation: increase fatty acid oxidation

## Nc1ncnc2c1ncn2[C@@H]1O[C@H](COP(=O)(O)OP(=O)(O)OP(=O)(O)O)[C@@H](O)[C@H]1O [ATP]
mClps
  mClps expression in the liver: did not induce mClps expression

## CCNC(=O)[C@H]1O[C@@H](n2cnc3c(N)ncnc32)[C@H](O)[C@@H]1O [NECA]
mClps
  mClps expression in the liver: did not induce colipase expression

## Nc1ncnc2c1ncn2[C@@H]1O[C@H](CO)[C@@H](O)[C@H]1O [adenosine]
mClps
  mClps expression in the liver: induced mClps expression
[7]
  water solubility: very low

## Nc1ncnc2c1ncn2[C@@H]1O[C@@H]2COP(=O)(O)O[C@H]2[C@H]1O [c-AMP]
mClps
  mClps expression in the liver: did not induce mClps expression
